# In patent US20090004497A1, “Wood Preservative Formulations Comprising Rh-287” (priority 2006, published 2009):
# Where “and” joins values, the source holds several entries; their conditions need not be identical. Equal entries are not always repeated.
# Test system: decay organisms
# Experiment: soil contact veneer exposure test (Scots pine sapwood veneers part buried in damp compost, pulled by hand until failure)
# Details: for Half lives for chemicals tested as solutions in acetone, With RH-287 added / Half lives for chemicals tested as solutions in acetone, No addition (average time for failure to occur) / Half lives, With RH-287 added, expected value in parentheses / positive synergy: actual average time to failure compared with the estimated one: Example 1; for Half lives for chemicals tested as solutions in acetone, With RH-287 added: 1.00% fungicide plus 1.00% RH-287 in acetone; for Half lives for chemicals tested as solutions in acetone, No addition (average time for failure to occur): 2.00% fungicide alone in acetone, dip treated veneers, 6 replicates, compost about 30° C.; for Half lives, With RH-287 added, expected value in parentheses: expected additive value for 1.00% fungicide plus 1.00% RH-287, midway between the two 2.00% values; for positive synergy: actual average time to failure compared with the estimated one: combination of RH-287 with co-biocide, 1.00% each in acetone
# From the text: It is preferable that the thickness of the veneers be greater than 0.1 mm, as veneers of lesser thickness can often be pulled apart by hand without undergoing exposure to decay organisms. Veneers which are thicker than 0.4 may take an excessive amount of time to fail the exposure test. In one embodiment, the thickness of the veneers is about 0.2 mm and the wood is the sapwood of the Scots pine (Pinus sylvestris). Other woods and thicknesses can be used. […] For example, 0.2 mm thick Scots pine sapwood veneers which are exposed as outlined below generally fail in 5 weeks or less. An example of convenient width and length dimensions are 15×50 mm. However, width and length are not critical, although very large or small length or width dimensions may be difficult to handle.
# Accordingly, the test of the present invention comprises testing the integrity of a veneer after exposure to a decay-inducing environment. In one embodiment, this environment is damp compost in which decay organisms are present and water is present at just above the water holding capacity of the compost. If desired, other media can be used, and the test can be conducted at water contents which are below, at, or above the water-holding capacity of the media.
# In general, the integrity of the veneer is inversely related to the length of exposure to the decay promoting environment. The integrity of the veneer can be tested by applying a force to the veneer and noting whether or not the veneer breaks. Thus, if wood preservative agents are applied to the veneers, these veneers would be expected to withstand longer exposure to the environment without breaking compared to control veneers without breaking.
# The force applied to the veneers is preferably a force which pulls the two ends in opposite directions. The force can be applied by the use of an instrument or manually. If there is significant decay the veneer will break, generally near the junction between the portion submerged in the decay accelerating medium and the portion exposed to air. If the force is applied manually, it is preferable that the same individual conduct the test at the various exposure time points.
# Veneers of Scots pine Pinus sylvestris (0.2 mm thick, 50×15 mm) sapwood are cut from test blocks as described in EN 113, a known standard test method in the European timber industry. The veneers were cut such that both late wood and early wood were present in each veneer. RH-287 was tested in combination with the following biocides: chlorothalonil, fenpropimorph, propiconazole, copper ( as copper naphthenate ), tridemorph, fenarimol, cyproconazole, Imazalil and dichlorophen.
# Test solutions were prepared and sets of veneers were dip treated such that there were 6 replicate veneers for each treatment under investigation. Additionally six veneers were dip treated in deionised water to act as water controls. Being thin, the timber veneers dried quickly. Plastic containers (approximately 350×220 mm by at least 60 mm high) were part filled with John Innes Number 2 potting compost at a little above its water holding capacity. The veneers for a particular test were placed in six rows within a container such that approximately half the veneer was below the compost and half above. The veneers were placed in the compost such than those given a particular treatment were distributed throughout the container and were not grouped together. The containers, compost and veneers were weighed then incubated at about 30° C. and near 100% relative humidity in an incubator. Each week during the test the assembly was reweighed and deionised water added to bring it back to its original mass. After 3 weeks each veneer was examined in turn. It was held between the fingers at each end and pulled to see if it could be broken. If it could be pulled apart a failure was recorded. If the veneer was sound, this was recorded and the veneer was returned to its original position. […]
# [1] = Example 3, solutions in acetone
# [2] = Example 4, solutions in acetone
compound,measurement,setting,value
"OC(c1ccc(Cl)cc1)(c1cncnc1)c1ccccc1Cl (racemic) [Fenarimol, (±)-2,4′-dichloro-α-(pyrimidin-5-yl) benzhydryl alcohol]","Half lives for chemicals tested as solutions in acetone, With RH-287 added",,17.17 weeks
same,"Half lives for chemicals tested as solutions in acetone, No addition (average time for failure to occur)",,5.50 weeks
same,"Half lives, With RH-287 added, expected value in parentheses",,(15.34 weeks)
"CC(Cc1ccc(C(C)(C)C)cc1)CN1C[C@@H](C)O[C@@H](C)C1 (mixture of isomers) [Fenpropimorph, (±)-cis-4-[3-(4-tert-butylphenyl)-2-nethylpropyl]-2,6-dimethyl=morpholine]","Half lives for chemicals tested as solutions in acetone, With RH-287 added",,21.17 weeks
same,"Half lives for chemicals tested as solutions in acetone, No addition (average time for failure to occur)",,4.50 weeks
same,positive synergy: actual average time to failure compared with the estimated one,,most marked
same,"Half lives, With RH-287 added, expected value in parentheses",,(14.84 weeks)
"CCCC1COC(Cn2cncn2)(c2ccc(Cl)cc2Cl)O1 (racemic) [Propiconazole, (±)-1-[2-(2,4-dichlorophenyl)-4-propyl-1,3-dioxolan-2-ylmethyl-=1H-1,2,4-triazol]","Half lives for chemicals tested as solutions in acetone, With RH-287 added",,20.50 weeks
same,"Half lives for chemicals tested as solutions in acetone, No addition (average time for failure to occur)",,4.50 weeks
same,"Half lives, With RH-287 added, expected value in parentheses",,(14.84 weeks)
"N#Cc1c(Cl)c(Cl)c(Cl)c(C#N)c1Cl [Chlorothalonil, tetrachloroisophthalonitrile]","Half lives for chemicals tested as solutions in acetone, With RH-287 added",,22.50 weeks
same,"Half lives for chemicals tested as solutions in acetone, No addition (average time for failure to occur)",,12.5 weeks and 12.50 weeks
same,"Half lives for chemicals tested as solutions in acetone, No addition (average time for failure to occur)",listed as chlorothalonil,12.5 weeks
same,"Half lives, With RH-287 added, expected value in parentheses",listed as chlorothalonil,about 18.84 weeks
"CC(C1CC1)C(O)(Cn1cncn1)c1ccc(Cl)cc1 (stereo not drawn) [Cyproconazole, (2RS,3RS;2RS,3SR)-2-(4-chlorophenyl)-3-cyclopropyl-1-=(1H-1,2,4-trazol-1-yl)butan-2-ol]","Half lives for chemicals tested as solutions in acetone, With RH-287 added",,22.00 weeks
same,"Half lives for chemicals tested as solutions in acetone, No addition (average time for failure to occur)",,5.17 weeks
same,positive synergy: actual average time to failure compared with the estimated one,,most marked
same,"Half lives, With RH-287 added, expected value in parentheses",,(15.17 weeks)
"Oc1ccc(Cl)cc1Cc1cc(Cl)ccc1O [Dichlorophen, 4.4′-dichloro-2,2′-methylenediphenol]","Half lives for chemicals tested as solutions in acetone, With RH-287 added",,24.17 weeks
same,"Half lives for chemicals tested as solutions in acetone, No addition (average time for failure to occur)",,16.00 weeks
same,"Half lives, With RH-287 added, expected value in parentheses",,(20.59 weeks)
same,"Half life for 0.8% fungicide plus 0.8% RH-287, expected value in parentheses","Example 3, expected additive value",{13.83 weeks}
same,Half life for 0.8% fungicide plus 0.8% RH-287,[1],15.33 weeks
same,Half life for fungicide at 0.8% active ingredient,[1],8.67 weeks
same,Half life for fungicide at 1.60% active ingredient (ai),[1],10.83 weeks
"CCCCCCCCn1sc(Cl)c(Cl)c1=O [RH-287, 4,5 dichloro-2-n-octyl-4-isothiazolin-3-one]","Half lives for chemicals tested as solutions in acetone, No addition (average time for failure to occur)",,25.17 weeks
same,Half life for fungicide at 2.00% active ingredient (ai),"Example 2, solutions in acetone",22.50 weeks
same,Half life for fungicide at 0.8% active ingredient,[1],10.00 weeks
same,Half life for fungicide at 1.60% active ingredient (ai),[1],16.83 weeks
same,Half life for fungicide at 0.8% active ingredient,[2],12.17 weeks
same,Half life for fungicide at 1.60% active ingredient (ai),[2],16.67 weeks
same,relationship between concentration of RH-287 and veneer half life,"Example 5, up to about 2% RH-287 in acetone (FIG. 1)",corresponding increase in the half life
"CCCCCCCCCCCCCN1CC(C)OC(C)C1 (stereo not shown) [Tridemorph, 4-alkyl-2,6-dimethylmorpholine]","Half lives for chemicals tested as solutions in acetone, With RH-287 added",,17.50 weeks
same,"Half lives for chemicals tested as solutions in acetone, No addition (average time for failure to occur)",,4.33 weeks
same,"Half lives, With RH-287 added, expected value in parentheses",,(14.75 weeks)
Copper naphthenate [Copper (as Copper Naphthenate)],"Half lives for chemicals tested as solutions in acetone, With RH-287 added",,21.50 weeks
same,"Half lives for chemicals tested as solutions in acetone, No addition (average time for failure to occur)",,16.67 weeks
